Results as given in paper PMC12400508 (RSC Advances, 2025).
In brackets after ≈: the same amount, converted by molar mass. Like-named read-outs stand apart in the source and are kept apart here.

What was measured:
mc^26230 pMV261 = test: microbe, parasite or virus in culture; format: cell-based; conditions: Mycobacterium tuberculosis, read-out: MIC, pMV261
THP-1 cells = test: Cytotoxicity assay in THP-1 cells; format: cell-based, Human; conditions: for IC50: Homo sapiens, THP-1, 72 h, read-out: IC50 (reduces the viability of THP-1 cells by 50%); for SI, selectivity index (IC50/MIC): THP-1 IC50 / Mtb MIC
Mtb mc^26230 = test: microbe, parasite or virus in culture; format: cell-based, Mycobacterium tuberculosis; conditions: for MIC: Mycobacterium tuberculosis; for MIC (MIC99): Mtb mc^26230, 6 days, Table 1 and text
[1] = read-out: MIC, mc^26230 (parental strain)

| Compound | MIC (mc^26230 pMV261) [µg/mL] | IC50 (THP-1 cells) [µg/mL] | SI, selectivity index (IC50/MIC) (THP-1 cells) | MIC (Mtb mc^26230) [µg/mL] | MIC (Mtb mc^26230; read-out: MIC, Wild-type) [µg/mL] | MIC (Mtb mc^26230; [1]) [µg/mL] | MIC (MIC99) (Mtb mc^26230) [µg/mL] |
| --- | --- | --- | --- | --- | --- | --- | --- |
| Cc1ccccc1/C=C1\SC(NNC(=O)c2ccncc2)=NC1=O [9d] | 3.12 (≈ 9.22 µM) | 21 (≈ 62.1 µM) | 14 | 1.56 (≈ 4.61 µM) | 1.56 (≈ 4.61 µM) | 1.56 (≈ 4.61 µM) |  |
| O=C1N=C(NNC(=O)c2ccncc2)S/C1=C\c1ccc(F)cc1 [9j] | 12.5 (≈ 36.5 µM) | 18 (≈ 52.6 µM) | 1.4 | 12.5 (≈ 36.5 µM) | 12.5 (≈ 36.5 µM) | 12.5 (≈ 36.5 µM) | 12.5 (≈ 36.5 µM) |
| O=C1N=C(NNC(=O)c2ccncc2)S/C1=C\c1ccccc1F [9l] |  |  |  |  |  | 25 (≈ 73 µM) |  |
| O=C1N=C(NNC(=O)c2ccncc2)S/C1=C\c1ccc(Cl)cc1 [9n] | 25 (≈ 69.7 µM) |  |  | 12.5 (≈ 34.8 µM) | 12.5 (≈ 34.8 µM) | 12.5 (≈ 34.8 µM) | 12.5 (≈ 34.8 µM) |
| O=C1N=C(NNC(=O)c2ccncc2)S/C1=C\c1ccccc1Cl [9p] |  |  |  |  |  | 25 (≈ 69.7 µM) |  |
| NNC(=O)c1ccncc1 [INH, isoniazid, reference compound] | 0.078 (≈ 0.569 µM) | > 100 | >100 | 0.039 (≈ 0.284 µM) | 0.078 (≈ 0.569 µM) | 0.039 (≈ 0.284 µM) |  |
| CO[C@H]1/C=C/O[C@@]2(C)Oc3c(C)c(O)c4c(O)c(c(/C=N/N5CCN(C)CC5)c(O)c4c3C2=O)NC(=O)/C(C)=C\C=C\[C@H](C)[C@H](O)[C@@H](C)[C@@H](O)[C@@H](C)[C@H](OC(C)=O)[C@@H]1C [RIF, reference compound] | 0.039 (≈ 0.0474 µM) |  |  |  | 0.039 (≈ 0.0474 µM) |  |  |
